Drawing on patent publication US9290551B2, “Compounds for treating papilloma virus infection” (NanoVir, LLC, priority 2012, dated 2016), this text covers IC50 for 8 molecules.

What all share (format): cell-based, Human papilloma virus
The test system of one test is HPV31. Description: HPV31 DNA levels in keratinocytes by real-time PCR. The following applies: effective (pseudo) IC50. Here is the method:
(§1) Human keratinocytes, including those maintaining HPV episomes, are cultured on mitomycin C-treated J2 3T3 cells in media containing three parts Dulbecco's modified Eagle medium (DMEM) and one part F12 media, our modification of published methods (Rheinwald and Green, 1975). Media (E Media) is supplemented with 0.4 μg/mL hydrocortisone, 10 ng/mL cholera toxin, 5 μg/mL insulin, 24 μg/mL adenine, 5 μg/mL transferrin, […] (T3), 10 ng/mL epidermal growth factor (EGF), 1% penicillin-streptomycin, and 5% fetal bovine serum (FBS). All cells are passaged at 70% confluency at a split ratio of 1:5.
(§2) Polyamides for HPV 18 are dissolved at 10 mM in 100% DMSO and diluted with H2O to 1 mM. Polyamides are added to cells in E media at final concentrations of 0.1-10 μM, with final DMSO concentrations of 0.1%. As controls, cells are incubated with normal E media and E media containing the “vehicle” 0.1% DMSO. The HPV DNA levels are then quantified according to previously published procedures (Garner-Hamrick and Fisher, Virology, 301, 334-41, 2002). After incubation, cells are harvested from the plates by either trypsinization or direct lysis with proteinase K digestion buffer (PK buffer: 100 mM NaCl, 10 mM Tris pH 8, 25 mM EDTA, 0.5% SDS, 0.1 mg/mL proteinase K). Trypsinized cells are counted on a hemocytometer and pelleted by centrifugation. Episomal HPV is isolated by the Hirt method (Hirt, 1967) and cell pellets are lysed in 0.6% SDS with 10 mM EDTA. NaCl is next added to a final concentration of 1 M. Following an overnight incubation at 4° C., precipitates containing the chromosomal DNA are spun down and episomal DNA precipitated by the addition of isopropanol. Cells lysed directly in PK buffer are transferred to microfuge tubes and incubated at 50° C. for 2 h. Lysates are then extracted with phenol/chloroform/isoamyl alcohol and spun through a phase lock gel (Eppendorf, Hamburg, Germany). Total DNA is then precipitated with 0.3 M NaOAc and 2.5 vol. ethanol and resuspended in Tris-EDTA (TE) buffer.
HPV31 primers-probe sets for PCR were also designed within the L1 gene:
(§3) All primers and probes are synthesized and HPLC purified by Applied Biosystems (Foster City, Calif.). The HPV probes are labeled with the 5′ reporter dye FAM (6-carboxy-fluorescein) and the 3′ quencher dye TAMRA (6-carboxytetramethyl-rhodamine). A standard curve is generated using a range of 10^8 to 10 copies/reaction of cloned, genomic HPV31 or HPV18 DNA using the following formula: (1.82×10^15)(μg/μL stock DNA)/(length in base pairs)(2)=copies/μL stock DNA. PCR reactions contain final concentrations of 1× Universal Master Mix (PE Applied Biosystems), 200 nM of each primer, and 250 nM probe (PE Applied Biosystems) in a reaction volume of 25 μL. Each Hirt-isolated DNA sample is analyzed in triplicate reactions for episomal HPV. Copies/reaction are determined from the standard curve, and copies/cell determined according to the following formula: (copies/reaction)×(DNA dilution)/(total # cells)=copies/cell.
(In qPCR the cycle at which signal appears reflects the starting amount.)

For a further test, the system named is HPV18. Briefly: HPV18 DNA levels in keratinocytes by real-time PCR. The following applies: effective (pseudo) IC50. As for the experimental part:
as §1, §2
Viral DNA levels are next quantified according to variations on our previously published methods (Garner-Hamrick and Fisher, Virology, 301, 334-41, 2002). Quantitative PCR is performed using Real-Time PCR technology on an ABI PRISM 7700 Sequence Detector. All primers and probes were designed using Primer Express 1.0 (ABI). For HPV 18, PCR primer-probe sets were designed within the L1 gene:
as §3

A further test deals with HPV 16. Description: HPV 16 episome DNA levels in W12E cells by Q-PCR (Taqman). The following applies: effective (pseudo) IC50; 50% reduction in HPV DNA relative to vehicle (0.1% DMSO); read-out: HPV-16 IC50. Here is the method:
Cells maintaining HPV 16 DNA were cultured for 72 hours in the presence of cidofovir, interferon γ or polyamide. Viral DNA was then quantified using real-time PCR and compared to vehicle (DMSO)-treated control cultures.
Compounds were initially tested for effects on HPV 16 episome DNA levels in W12E cells by Q-PCR (Taqman™) over 3 concentration ranges (0.1, 1 and 10 μM). W12E cells are a cervical keratinocyte cell line originally identified by M. Stanley (Cambridge University), and later optimized and provided by P. Lambert (U. of Wisconsin). […] In all cases (initial tests and follow-up IC50 tests), dose testing was performed in triplicate. […] Furthermore, all experiments were conducted in triplicate, multiple times. The data were then combined, pseudo or effective IC50 values calculated, and variance determined to reveal the fit of the data to the model and its reliability.
Keratinocytes that maintain HPV 16 episomes were treated with increasing concentrations of polyamides.

As for `CC(=O)N[C@H](CCNC(=O)c1cc(NC(=O)c2cc(NC(=O)CCNC(=O)c3nc(NC(=O)c4cc(NC(=O)c5cc(NC(=O)CCNC(=O)c6cc(NC(=O)c7cc(NC(=O)c8nccn8C)cn7C)cn6C)cn5C)cn4C)cn3C)cn2C)cn1C)C(=O)Nc1cc(C(=O)Nc2cc(C(=O)NCCC(=O)Nc3cc(C(=O)Nc4cc(C(=O)Nc5cc(C(=O)NCCC(=O)Nc6cc(C(=O)Nc7cc(C(=O)Nc8cc(C(=O)NCCC(=O)NCCCN(C)C)n(C)c8)n(C)c7)n(C)c6)n(C)c5)n(C)c4)n(C)c3)n(C)c2)n(C)c1` [Polyamide 1068, ImPPβPPIβPPγNHAcPPβPPPβPPPβDp], the half-maximal inhibitory concentration (IC50) with HPV31, with HPV18 and with HPV 16 was 0.1 to 1 µM each time.

Consider ImPPβPPPγNH2PPβPPPPβDp [Polyamide 1024], for which the IC50 (commonly the point on the concentration scale where inhibition reaches its midpoint) in the test with HPV31 is 0.1 to 1 µM; in the test with HPV18, no less than 1 µM; with HPV 16, greater than 1 µM.

Take `CN(CCCN)CCCNC(=O)CCNC(=O)c1cc(NC(=O)CCNC(=O)c2cc(NC(=O)c3cc(NC(=O)c4cc(NC(=O)CCNC(=O)c5cc(NC(=O)c6cc(NC(=O)[C@H](N)CCNC(=O)CCNC(=O)c7cc(NC(=O)c8cc(NC(=O)CCNC(=O)c9cc(NC(=O)c%10cc(NC(=O)c%11cc(NC(=O)c%12nccn%12C)cn%11C)cn%10C)cn9C)cn8C)cn7C)cn6C)cn5C)cn4C)cn3C)cn2C)cn1C` [Polyamide 1032, ImPPPβPPβγNH2PPβPPPβPβTa]: the IC50 in the test on HPV31 and with HPV 16 was 0.1 to 1 µM each time.

Turning to “ImPPPβPPPγNH2PPPβPPPββDp [Polyamide 1026]”, the 50% inhibitory concentration (IC50) in the test on HPV31 and with HPV 16 was 0.1 to 1 µM throughout.

Consider `CN(C)CCCNC(=O)CCNC(=O)c1cc(NC(=O)CCNC(=O)c2cc(NC(=O)c3cc(NC(=O)c4cc(NC(=O)CCNC(=O)c5cc(NC(=O)c6cc(NC(=O)CCCNC(=O)CCNC(=O)c7cc(NC(=O)c8cc(NC(=O)CCNC(=O)c9cc(NC(=O)c%10cc(NC(=O)c%11cc(NC(=O)c%12nccn%12C)cn%11C)cn%10C)cn9C)cn8C)cn7C)cn6C)cn5C)cn4C)cn3C)cn2C)cn1C` [Polyamide 1022, ImPPPβPPβγPPβPPPβPβDp], for which the 50% inhibitory concentration (IC50) is no less than 1 µM in the test with HPV31 and greater than 1 µM in the test on HPV 16.

`CN(CCCN)CCCNC(=O)CCNC(=O)c1cc(NC(=O)c2cc(NC(=O)c3cc(NC(=O)CCNC(=O)c4cc(NC(=O)c5cc(NC(=O)c6cc(NC(=O)CCNC(=O)c7cc(NC(=O)c8cc(NC(=O)CCCNC(=O)c9cc(NC(=O)c%10cc(NC(=O)CCNC(=O)c%11nc(NC(=O)c%12cc(NC(=O)c%13cc(NC(=O)CCNC(=O)c%14cc(NC(=O)c%15cc(NC(=O)c%16nccn%16C)cn%15C)cn%14C)cn%13C)cn%12C)cn%11C)cn%10C)cn9C)cn8C)cn7C)cn6C)cn5C)cn4C)cn3C)cn2C)cn1C` [Polyamide 1042, ImPPβPPIβPPγPPβPPPβPPPβTa] came in with a half-inhibitory concentration (IC50) in the test with HPV31 of no more than 0.1 µM.

`CN(C)CCCNC(=O)CCNC(=O)c1cc(NC(=O)c2cc(NC(=O)c3cc(NC(=O)c4cc(NC(=O)CCNC(=O)c5cc(NC(=O)c6cc(NC(=O)CCCNC(=O)c7cc(NC(=O)c8cc(NC(=O)c9cc(NC(=O)CCNC(=O)c%10cc(NC(=O)c%11cc(NC(=O)c%12nccn%12C)cn%11C)cn%10C)cn9C)cn8C)cn7C)cn6C)cn5C)cn4C)cn3C)cn2C)cn1C` [Polyamide 1023, ImPPβPPPγPPβPPPPβDp]: the results for the half-maximal inhibitory concentration (IC50) in the test on HPV31 and in the test on HPV 16 were no less than 1 µM and greater than 1 µM, respectively.

In the case of `CN(CCCN)CCCNC(=O)CCNC(=O)CCNC(=O)c1cc(NC(=O)c2cc(NC(=O)c3cc(NC(=O)CCNC(=O)c4cc(NC(=O)c5cc(NC(=O)c6cc(NC(=O)C(N)CCNC(=O)c7cc(NC(=O)c8cc(NC(=O)c9cc(NC(=O)CCNC(=O)c%10cc(NC(=O)c%11cc(NC(=O)c%12cc(NC(=O)c%13nccn%13C)cn%12C)cn%11C)cn%10C)cn9C)cn8C)cn7C)cn6C)cn5C)cn4C)cn3C)cn2C)cn1C` (centres unmarked) [Polyamide 1033, ImPPPβPPPγNH2PPPβPPPββTa], the half-maximal inhibitory concentration (IC50) with HPV31 is no less than 1 µM; with HPV 16, greater than 1 µM.
